Measurements as given in patent US20160139120A1 (The Trustees of Columbia University in the City of New York, priority 2013, published 2016).

What was measured:
RAGE-C1q binding = biological target: T1, RAGE-C1q binding (Homo sapiens, UniProt P02745+P02746+P02747); assay: ELISA-like C1q-sRAGE binding assay in presence of test substance; conditions: for ability of known RAGE ligands to block C1q binding to immobilized sRAGE: data not shown; for effect on C1q binding to immobilized sRAGE (RAGE-C1q interaction): 0-2 mM compound with 2 μg/ml C1q, 2 h
T1 construct: Three forms of human sRAGE, the extracellular domain of the receptor, were utilized; made in house; host or cells: Sf9 insect cells (baculovirus)
Procedure: “+” and “−” in (B) and (C) indicate whether the C1q was preincubated with monoclonal antibody or not, respectively. Results in (B) and (C) were mean±SD of three independent experiments. *p<0.01 in pair comparison indicated in the graph.
The final peroxidase activity was monitored at 492 nm with o-phenylenediamine dihydrochloride and hydrogen peroxide as substrates. […] Remaining binding sites were blocked with 5% non-fat milk in PBS. […] ECL Western blot detection kit was used to visualize the binding.

U-937 cells = assay: Cytotoxicity and activation/differentiation test on U-937 cells; assay type: cell-based, human
Text: Phenolphthalein bisphosphate has been used in bacteria culture media as phosphatase substrate. […] Phagocytes are major protective cells in the body by ingesting harmful foreign particles, bacteria, and dead or dying cells. In an in vivo abdominal sepsis model caused by intraperitoneally injection with Escherichia coli, RAGE was involved in defense against the growth and/or dissemination of E. coli (The Journal of Infectious Diseases 2009, 200:765-773). In the presence of RAGE, E. coli numbers were much lower in the injection site as well as in major organs of the mouse. With the help of phenolphthalein bisphosphate, we expect that RAGE's function in this sepsis model could be enhanced further.

complement system = assay: Complement activation assay (C3a formation in human serum); assay type: biochemical
Procedure: Complement activation was monitored as C3a formation from proteolytic cleavage of C3 by ELISA kit.
C3a was assayed by ELISA kit.
Two different forms of each protein were tested, one was immobilized and the other was free molecule in serum (dissolved). For immobilized forms, 96-well MaxiSorp plate was coated with 50 μg/ml of each protein and blocked with BSA. Complement activation was performed as in (A).
After 1 h incubation, C3a levels in the human serum were determined as a marker of complement activation with human C3a EIA kit according to the manufacturer's instructions.

U937 cells [1] = assay: Monocyte adhesion: U937 cells to C1q-coated plate; assay type: cell-based, human; conditions: 2 mM in medium, 24 h
Procedure: U-937 cells (2×10^5/ml) cultured in RPMI medium containing 10% fetal bovine serum, 100 units/ml of penicillin and 100 μg/ml of streptomycin were incubated with 100 nM of D3 and 2 ng/ml of TGF-β at 37° C. in a 5% CO2 incubator for 24 hours. After washing twice with serum-free RPMI medium, U-937 cells were suspended at concentration of 2×10^5/ml in serum-free RPMI medium containing 0 or 100 μg/ml of chicken anti-human RAGE IgY or 20 μg/ml of F(ab′)2 of mouse anti-human CD11b IgG1. As controls, 100 μg/ml of chicken anti-AGE IgY and 100 μg/ml of mouse IgG1 isotype control were used. […] The cells were cultured for 24 hours, then 50 μl of serum-free RPMI medium containing 15 μM of Calcein AM was added into each well to label U-937 cells with fluorescence for 1 hour. After three gentle washes with Hanks' balanced salt solution, the attached U-937 cells were photographed with regular light and fluorescent light, as shown in panel A. To quantitatively measure cell attachment, the plate was read with fluorescence plate reader with excitation at 485 nm and emission at 530 nm, as shown in panel B. The p value was calculated by student T-test with at least 4 samples for each condition. […]
(A) ARPE-19RAGE cells expressed high level of RAGE protein. Ten micrograms of total proteins from ARPE-19, ARPE-19RAGE and RAGE-transfected C6 cells (C6-RAGE) were analyzed for RAGE expression by Western blot. […]

Mac-1 = biological target: T2, Mac-1 (Homo sapiens, UniProt P05107+P11215); assay: Pull-down of sRAGE and C1q by immobilized Mac-1; assay type: binding; conditions: ½ PBS
T2 construct: purchased R&D Systems 4047-AM
Procedure: The plate was cooled down on ice for 10 min and washed quickly three-times with cold ½ PBS. […] Stripping of Western blot membranes was performed with buffer from Pierce according to the manufacturer's instructions.

U937 cells [2] = assay: Phagocytosis of apoptotic Jurkat cells by differentiated U937 cells (FACS); assay type: cell-based, human; conditions: with addition of C1q; basal level 47%
Procedure: (A) Representative dot-plots of different cell populations separated by FACS after 2 h phagocytosis of apoptotic Jurkat cells: top-left U937 cells without phagocytosis; top-right phagocytic U937 cells labeled with percentage of total U937 population; bottom-right apoptotic Jurkat cells. (B) FACS analysis of phagocytosis of apoptotic Jurkat cells and effect of anti-RAGE and anti-CD11b antibodies. […] Results in (B) and (D) were mean±SD of three independent experiments. *p<0.01 in pair comparison indicated in the graph.
U937 cells (2×10^5/ml) were differentiated in standard medium containing 100 nM of vitamin D3 and 2 ng/ml of TGF-β1 at 37° C. in a 5% CO2 incubator for 2 days, with refreshment of vitamin D3 and TGF-β1 at 24 h. Differentiated U937 cells were harvested and re-suspended in Hank's Balanced Salt Solution (HESS, containing calcium and magnesium) at 2×10^6/ml, and then labeled with 5 μM of CM-DiI at 37° C. for 20 min. Labeling was ended by washing cells three times with HESS. The resulted cells were re-suspended at 4×10^5/ml in phagocytosis buffer (HESS plus 2 mM MgCl2 and 20 mM glutamate, pH 7.0).
To label Jurkat cells with CFSE (carboxyfluorescein succinimidyl ester), Jurkat cells were incubated with 1 μM of CFDA-SE in HESS for 30 min at 37° C. Harvested cells were resuspended (1×10^6/ml) in HESS containing 1 μM of staurosporine and incubated at 37° C. for 6 h. […]

[3] = tested on: RAGE-overexpressing cells; assay: Steady state binding of free C1q to RAGE-overexpressing cells; assay type: cell-based, human; conditions: data not shown
Text: RAGE expression was compared with another RAGE over-expressing cell line C6-RAGE, generated from rat astroglial C6 (Taguchi, 2000), with the result shown in FIG. 15A.
FIG. 10E was used (data not shown). […] The results using rat native serum with RAGE-transfected C6 cells produced similarly unremarkable results (results not shown).

T1 sequence (P02745 23-245): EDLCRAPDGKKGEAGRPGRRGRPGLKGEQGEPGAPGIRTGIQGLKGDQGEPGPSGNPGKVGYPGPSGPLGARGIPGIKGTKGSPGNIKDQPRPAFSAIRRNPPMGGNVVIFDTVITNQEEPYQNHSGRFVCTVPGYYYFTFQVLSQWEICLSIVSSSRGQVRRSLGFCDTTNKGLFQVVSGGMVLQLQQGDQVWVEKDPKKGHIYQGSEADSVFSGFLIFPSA
T1 sequence (P02746 28-253): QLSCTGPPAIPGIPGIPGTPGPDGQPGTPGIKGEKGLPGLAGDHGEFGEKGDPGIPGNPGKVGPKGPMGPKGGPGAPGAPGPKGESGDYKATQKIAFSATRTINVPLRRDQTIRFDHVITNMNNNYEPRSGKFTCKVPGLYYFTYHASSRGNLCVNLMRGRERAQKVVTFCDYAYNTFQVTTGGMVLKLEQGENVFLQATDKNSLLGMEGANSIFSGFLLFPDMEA
T1 sequence (P02747 29-245): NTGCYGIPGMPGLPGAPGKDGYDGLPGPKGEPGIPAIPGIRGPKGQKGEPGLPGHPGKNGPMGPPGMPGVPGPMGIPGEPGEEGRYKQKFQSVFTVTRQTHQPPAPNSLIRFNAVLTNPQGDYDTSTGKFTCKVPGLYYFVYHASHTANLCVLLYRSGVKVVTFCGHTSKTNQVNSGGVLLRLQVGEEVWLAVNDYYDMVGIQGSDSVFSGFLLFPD
T2 sequence (P05107 23-700 limits assumed, other chains not shown): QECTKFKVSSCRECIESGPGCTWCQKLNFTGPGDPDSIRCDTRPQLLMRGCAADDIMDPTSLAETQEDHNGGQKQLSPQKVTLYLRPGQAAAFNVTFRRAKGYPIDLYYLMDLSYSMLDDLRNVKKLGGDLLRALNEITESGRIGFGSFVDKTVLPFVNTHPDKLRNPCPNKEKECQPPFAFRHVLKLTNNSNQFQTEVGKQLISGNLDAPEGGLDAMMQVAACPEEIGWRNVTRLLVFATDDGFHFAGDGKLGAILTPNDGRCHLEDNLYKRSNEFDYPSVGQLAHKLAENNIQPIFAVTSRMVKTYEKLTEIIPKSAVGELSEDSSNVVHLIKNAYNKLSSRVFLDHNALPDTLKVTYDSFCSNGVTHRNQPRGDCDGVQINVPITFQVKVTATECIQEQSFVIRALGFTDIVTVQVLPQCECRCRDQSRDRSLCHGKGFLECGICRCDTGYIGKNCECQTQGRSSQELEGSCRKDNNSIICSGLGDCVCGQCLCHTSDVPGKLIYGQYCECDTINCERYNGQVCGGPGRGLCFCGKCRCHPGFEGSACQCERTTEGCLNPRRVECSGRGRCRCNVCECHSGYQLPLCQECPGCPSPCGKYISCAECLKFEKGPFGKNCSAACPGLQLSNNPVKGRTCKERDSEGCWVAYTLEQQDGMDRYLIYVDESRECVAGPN

## 51003: known RAGE ligand; S100B obtained from Calbiochem [compound 51003]
RAGE-C1q binding
  ability of known RAGE ligands to block C1q binding to immobilized sRAGE: unable to block C1q binding to immobilized sRAGE

## O=C1OC(c2ccc(OP(=O)([O-])[O-])cc2)(c2ccc(OP(=O)([O-])[O-])cc2)c2ccccc21.[Na+].[Na+].[Na+].[Na+] [phenolphthalein bisphosphate, Phenolphthalein bisphosphate tetrasodium salt]
U-937 cells
  activation or differentiation of U-937 cells: couldn't activate or differentiate U-937 cells
U-937 cells; 2 mM
  cytotoxicity: no cytotoxicity
RAGE-C1q binding
  effect on C1q binding to immobilized sRAGE (RAGE-C1q interaction): Phenolphthalein bisphosphate enhanced RAGE-C1q
RAGE-C1q binding; listed as Phenolphthalein Biphosphate
  effect on C1q binding to immobilized sRAGE (RAGE-C1q interaction): enhance RAGE-C1q interaction with dose-dependent manor
Complement system; 1 mM compound, 2 μg sRAGE in 20 μl fresh human serum
  effect on complement activation of sRAGE: without enhancement on complement activation
U937 cells [1]
  effect of compound on U-937 cells adhesion to C1q-coated plate: significantly increase the adherent U-937 cells
U937 cells [1]; listed as Phenolphthalein bisphosphate
  effect of compound on U-937 cells adhesion to C1q-coated plate: Phenolphthalein bisphosphate increased monocytes

## AGE-BSA: glycated bovine serum albumin
RAGE-C1q binding
  ability of known RAGE ligands to block C1q binding to immobilized sRAGE: unable to block C1q binding to immobilized sRAGE

## Avastin: a humanized IgG1 antibody for VEGF
Complement system; at every coating concentration
  complement activation (C3a) activity relative to sRAGE: about 8 times

## C1q: human C1q protein (Quidel); first subcomponent of the C1 complex of the classical complement pathway
Mac-1
  pull-down by immobilized Mac-1, proteins incubated separately: pulled down
  pull-down by immobilized Mac-1, sRAGE and C1q co-incubated: increased
U937 cells [2]
  phagocytic U937 cells population, of total U937 cells: 66%
[3]
  binding of free C1q to cells: did not bind

## Mac-1: recombinant form of human Mac-1 (CD11b/CD18), R&D Systems 4047-AM
Complement system; protein(s) preincubated in PBS then added to fresh human serum (FIG. 13B)
  complement activation in liquid phase: could not activate the complement system

## amyloid β protein fragment 1-42 [A-beta]
RAGE-C1q binding
  ability of known RAGE ligands to block C1q binding to immobilized sRAGE: unable to block C1q binding to immobilized sRAGE
